Assay results reported in patent US8399457B2, “Pharmaceutical compounds” (Neuroscienze Pharmaness S.C. A.R.L., priority 2008, dated 2013).

How the values were obtained:
[1] = system: response to the pain in mice; experiment: Tail Flick test (analgesic effect)
[2] = system: response to the pain in mice; experiment: Hot Plate test (analgesic effect)
[3] = 10 mg/kg i.p., 30 min, formula (I) compounds as formates
[4] = 10 mg/kg i.p., 60 min, formula (I) compounds as formates
[5] = 10 mg/kg i.p., 120 min, formula (I) compounds as formates
[6] = 10 mg/kg i.p., 240 min, formula (I) compounds as formates
[7] = 10 mg/kg i.p., 360 min, formula (I) compounds as formates
[8] = 20 mg/kg i.p., 30 min, as formates
[9] = 20 mg/kg i.p., 60 min, as formates
[10] = 20 mg/kg i.p., 120 min, as formates
[11] = 20 mg/kg i.p., 240 min, as formates
[12] = 20 mg/kg i.p., 360 min, as formates

SMILES: CCC(=O)N1CCC2CCC(C1)N2C/C=C(\C)c1ccccc1 (stereo not shown) [I-Aa]
- MPE % [1, 3]: 65.5 ± 6.5%
- MPE % [1, 4]: 20.1 ± 4.1%
- MPE % [1, 5]: 10.0 ± 1.0%
- MPE % [1, 6]: 3.1 ± 2.0%
- MPE % [1, 7]: −3.0 ± 0.5%
- melting point: 230 to 232 °C
- MPE % [2, 3]: 49.5 ± 10.5%
- MPE % [2, 4]: 25.1 ± 6.1%
- MPE % [2, 5]: 6.0 ± 3.0%
- MPE % [2, 6]: 3.2 ± 3.0%
- MPE % [2, 7]: 4.1 ± 1.0%

SMILES: CCC(=O)N1C2CCCC1CN(C/C=C(\C)c1ccccc1)CC2 (stereo not shown) [I-Da]
- melting point: 144 to 146 °C

SMILES: CCC(=O)N1C2CCCC1CN(CC=C(c1ccccc1)c1ccccc1)CC2 (stereo not shown) [I-Dc]
- melting point: 169 to 170 °C

SMILES: CCC(=O)N1CCC2CCC(C1)N2C/C=C(\C)c1ccc(Cl)c(Cl)c1 (stereo not shown) [I-Ab]
- melting point: 188 to 189 °C

SMILES: CCC(=O)N1C2CCC1CN(C/C=C(\C)c1ccc(Cl)c(Cl)c1)CC2 (stereo not shown) [I-Bb]
- melting point: 186 to 188 °C

SMILES: CCC(=O)N1CCC2CCCC(C1)N2CC=C(c1ccccc1)c1ccccc1 (stereo not shown) [I-Cc]
- MPE % [1, 8]: 80.2 ± 7.5%
- MPE % [1, 9]: 52.9 ± 8.1%
- MPE % [1, 10]: 42.1 ± 8.3%
- MPE % [1, 11]: 14.6 ± 3.0%
- MPE % [1, 12]: 0.0 ± 0.8%
- melting point: 137 to 139 °C
- MPE % [2, 8]: 55.2 ± 10.5%
- MPE % [2, 9]: 40.9 ± 7.8%
- MPE % [2, 10]: 24.1 ± 7.3%
- MPE % [2, 11]: 5.0 ± 4.0%
- MPE % [2, 12]: 0.1 ± 1.1%

SMILES: CCC(=O)N1CCC2CCCC(C1)N2C/C=C(\C)c1ccc(Cl)c(Cl)c1 (stereo not shown) [I-Cb]
- melting point: 184 to 185 °C

SMILES: CN1CC[C@]23c4c5ccc(O)c4O[C@H]2[C@@H](O)C=C[C@H]3[C@H]1C5 [Morphine, reference compound]
- MPE % [1, 4]: 60.5 ± 6.8%
- MPE % [1, 5]: 39.6 ± 4.0%
- MPE % [1, 6]: 19.1 ± 3.0%
- MPE % [1, 7]: 6.1 ± 1.1%

SMILES: CCC(=O)N1C2CCC1CN(CC=C(c1ccccc1)c1ccccc1)CC2 (stereo not shown) [I-Bd]
- melting point: 184 to 186 °C

SMILES: CCC(=O)N1C2CCCC1CN(C/C=C(\C)c1ccc(Cl)c(Cl)c1)CC2 (stereo not shown) [I-Db]
- melting point: 175 to 176 °C

SMILES: CCC(=O)N1CCC2CCC(C1)N2CC=C(c1ccccc1)c1ccccc1 (stereo not shown) [I-Ad]
- melting point: 176 to 177 °C

SMILES: CCC(=O)N1C2CCC1CN(C/C=C(\C)c1ccccc1)CC2 (stereo not shown) [I-Ba]
- MPE % [1, 8]: 89.9 ± 7.0%
- MPE % [1, 9]: 88.5 ± 10.3%
- MPE % [1, 10]: 9.0 ± 2.5%
- MPE % [1, 11]: 2.0 ± 1.1%
- MPE % [1, 12]: −2.0 ± 1.0%
- melting point: 228 to 230 °C
- MPE % [2, 8]: 68.9 ± 7.2%
- MPE % [2, 9]: 50.5 ± 11.3%
- MPE % [2, 10]: 7.0 ± 2.1%
- MPE % [2, 11]: 6.0 ± 2.1%
- MPE % [2, 12]: −4.0 ± 2.0%

SMILES: CCC(=O)N1CCC2CCCC(C1)N2C/C=C(\C)c1ccccc1 (stereo not shown) [I-Ca]
- melting point: 106 to 108 °C
